Measured values: US10738028B2, “Spiro three-membered ring, spiro five-membered ring peptide deformylase inhibitor and use thereof in antibacteria and anti-tumor” (priority 2016, dated 2020)

Experiments:
Type in all cases: cell-based
[1] = test system: Enterococcus faecalis (EFA); experiment: MIC, two-fold agar dilution (CLSI), clinical isolates
Procedure, shortened: (§1)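 Susceptibility was tested using CLSI two-fold agar dilution against the strains examined.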

[2] = test system: Enterococcus faecium (EFM); experiment: as above
Procedure, shortened: as §1

[3] = test system: Escherichia coli (including ESBLs, non-ESBLs); experiment: as above
Procedure, shortened: as §1

[4] = test system: Moraxella catarrhalis (BCA); experiment: as above
Procedure, shortened: as §1

[5] = test system: Streptococcus pneoumoniae (SPN); experiment: as above
Procedure, shortened: as §1

[6] = test system: methicillin-resistant Staphylococcus aureus (MRSA); experiment: as above
Procedure, shortened: as §1

[7] = test system: methicillin-resistant Staphylococcus epidermidis (MRSE); experiment: as above
Procedure, shortened: as §1

[8] = test system: methicillin-sensitive Staphylococcus aureus (MSSA); experiment: as above
Procedure, shortened: as §1

[9] = test system: methicillin-sensitive Staphylococcus epidermidis (MSSE); experiment: as above
Procedure, shortened: as §1

[10] = test system: HCT-116 colorectal cancer cell line; experiment: CCK-8 proliferation inhibition; settings: concentration of 30 μM, 72 hours, CCK-8
Procedure, shortened: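 2000 cells/well, McCoy's 5A + 10% newborn bovine serum; overnight attach, 37° C./5% CO2. Cpd from DMSO stock diluted in medium, 72 h. Readout: CCK-8 (1:10). Ctrl 1‰ DMSO.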

[11] = test system: A549 lung cancer cell line; experiment: CCK-8 proliferation inhibition; settings: concentration of 30 μM
Procedure, shortened: (§2)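 Plating at 2000 cells/well, then incubation overnight at 37° C. Next, a range of compound concentrations for 72 hours (control 1‰ DMSO). Finally, medium decanted and CCK-8 diluted 1:10 added.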

[12] = test system: BEL-7402 liver cancer cell line; experiment: CCK-8 proliferation inhibition; settings: concentration of 30 μM
Procedure, shortened: as §2

[13] = test system: MGC-803 gastric cancer cell line; experiment: CCK-8 proliferation inhibition; settings: Homo sapiens, MGC-803, 72 h, concentration of 30 μM
Procedure, shortened: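 CCK-8 read-out after 72 h drug exposure; 2000 cells/well, overnight pre-culture (37° C, 5% CO2); vehicle 1‰ DMSO. Media: PC3 F12; MGC-803/Jurkat 1640; MCF-7 DMEM high glucose; all +10% newborn bovine serum, 1% antibiotics.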

Compound: CCCC[C@H](CC(=O)NO)C(=O)N1CC2(CC2)C[C@H]1C(=O)Nc1nc(C(F)(F)F)cs1 [Example 57]
- Anti-bacterial activity (MIC), strain EFA 15-1 ([1]; clinical isolate EFA 15-1): 8 µg/mL
- Anti-bacterial activity (MIC), strain EFA 15-2 ([1]; clinical isolate EFA 15-2): 8 µg/mL
- Anti-bacterial activity (MIC), strain EFA 15-3 ([1]; clinical isolate EFA 15-3): 8 µg/mL
- Anti-bacterial activity (MIC), strain EFA 15-4 ([1]; clinical isolate EFA 15-4): 8 µg/mL
- Anti-bacterial activity (MIC), strain EFA 15-5 ([1]; clinical isolate EFA 15-5): 8 µg/mL
- Anti-bacterial activity (MIC), strain EFA 15-6 ([1]; clinical isolate EFA 15-6): 8 µg/mL
- Anti-bacterial activity (MIC), strain EFA 15-9 ([1]; clinical isolate EFA 15-9): 8 µg/mL
- Anti-bacterial activity (MIC), strain EFM 15-1 ([2]; clinical isolate EFM 15-1): 1 µg/mL
- Anti-bacterial activity (MIC), strain EFM 15-2 ([2]; clinical isolate EFM 15-2): 2 µg/mL
- Anti-bacterial activity (MIC), strain EFM 15-3 ([2]; clinical isolate EFM 15-3): 0.25 µg/mL
- Anti-bacterial activity (MIC), strain EFM 15-4 ([2]; clinical isolate EFM 15-4): 1 µg/mL
- Anti-bacterial activity (MIC), strain EFM 15-5 ([2]; clinical isolate EFM 15-5): 0.5 µg/mL
- Anti-bacterial activity (MIC), strain EFM 15-6 ([2]; clinical isolate EFM 15-6): 4 µg/mL
- Anti-bacterial activity (MIC), strain ECO+ 15-1 ([3]; clinical isolate ECO+ 15-1): 32 µg/mL
- Anti-bacterial activity (MIC), strain ECO+ 15-2 ([3]; clinical isolate ECO+ 15-2): > 32 µg/mL
- Anti-bacterial activity (MIC), strain ECO+ 15-3 ([3]; clinical isolate ECO+ 15-3): > 32 µg/mL
- Anti-bacterial activity (MIC), strain ECO+ 15-4 ([3]; clinical isolate ECO+ 15-4): > 32 µg/mL
- Anti-bacterial activity (MIC), strain ECO− 15-1 ([3]; clinical isolate ECO− 15-1): > 32 µg/mL
- Anti-bacterial activity (MIC), strain ECO− 15-2 ([3]; clinical isolate ECO− 15-2): > 32 µg/mL
- Anti-bacterial activity (MIC), strain ECO− 15-3 ([3]; clinical isolate ECO− 15-3): > 32 µg/mL
- Anti-bacterial activity (MIC), strain ECO− 15-4 ([3]; clinical isolate ECO− 15-4): > 32 µg/mL
- Anti-bacterial activity (MIC), strain BCA 14-1 ([4]; clinical isolate BCA 14-1): 0.5 µg/mL
- Anti-bacterial activity (MIC), strain BCA 14-4 ([4]; clinical isolate BCA 14-4): 0.5 µg/mL
- Anti-bacterial activity (MIC), strain BCA 14-5 ([4]; clinical isolate BCA 14-5): 0.5 µg/mL
- Anti-bacterial activity (MIC), strain BCA 14-6 ([4]; clinical isolate BCA 14-6): 1 µg/mL
- Anti-bacterial activity (MIC), strain BCA 14-7 ([4]; clinical isolate BCA 14-7): 0.25 µg/mL
- Anti-bacterial activity (MIC), strain BCA 14-8 ([4]; clinical isolate BCA 14-8): 0.25 µg/mL
- Anti-bacterial activity (MIC), strain BCA 14-10 ([4]; clinical isolate BCA 14-10): 0.25 µg/mL
- Anti-bacterial activity (MIC), strain SPN 16-2 ([5]; clinical isolate SPN 16-2): 2 µg/mL
- Anti-bacterial activity (MIC), strain SPN 16-4 ([5]; clinical isolate SPN 16-4): 0.25 µg/mL
- Anti-bacterial activity (MIC), strain MRSA 15-1 ([6]; clinical isolate MRSA 15-1): 0.5 µg/mL
- Anti-bacterial activity (MIC), strain MRSA 15-2 ([6]; clinical isolate MRSA 15-2): 0.5 µg/mL
- Anti-bacterial activity (MIC), strain MRSA 15-3 ([6]; clinical isolate MRSA 15-3): 0.5 µg/mL
- Anti-bacterial activity (MIC), strain MRSA 15-4 ([6]; clinical isolate MRSA 15-4): 0.5 µg/mL
- Anti-bacterial activity (MIC), strain MRSE 15-1 ([7]; clinical isolate MRSE 15-1): 0.125 µg/mL
- Anti-bacterial activity (MIC), strain MRSE 15-2 ([7]; clinical isolate MRSE 15-2): 0.125 µg/mL
- Anti-bacterial activity (MIC), strain MRSE 15-3 ([7]; clinical isolate MRSE 15-3): 0.125 µg/mL
- Anti-bacterial activity (MIC), strain MRSE 15-7 ([7]; clinical isolate MRSE 15-7): 0.25 µg/mL
- Anti-bacterial activity (MIC), strain MSSA 15-3 ([8]; clinical isolate MSSA 15-3): 0.5 µg/mL
- Anti-bacterial activity (MIC), strain MSSA 15-4 ([8]; clinical isolate MSSA 15-4): 0.125 µg/mL
- Anti-bacterial activity (MIC), strain MSSA 15-5 ([8]; clinical isolate MSSA 15-5): 0.125 µg/mL
- Anti-bacterial activity (MIC), strain MSSA 15-6 ([8]; clinical isolate MSSA 15-6): 0.125 µg/mL
- Anti-bacterial activity (MIC), strain MSSE 15-3 ([9]; clinical isolate MSSE 15-3): 0.25 µg/mL
- Anti-bacterial activity (MIC), strain MSSE 15-4 ([9]; clinical isolate MSSE 15-4): 0.125 µg/mL
- Anti-bacterial activity (MIC), strain MSSE 15-5 ([9]; clinical isolate MSSE 15-5): 0.125 µg/mL
- Anti-bacterial activity (MIC), strain MSSE 15-6 ([9]; clinical isolate MSSE 15-6): 0.06 µg/mL
- inhibition at 30 µM ([10]; Homo sapiens, HCT-116, 72 h, read-out: HCT116 inhibition rate/%): > 50%
- HCT116 inhibition rate/% ([10]; 30 µM): 52%
- inhibition at 30 µM ([11]; Homo sapiens, A549, 72 h): > 50%
- Inhibition of proliferation, Lung cancer A549 ([11]; 72 hours, 30 µM): 52%
- inhibition at 30 µM ([12]; Homo sapiens, Bel-7402, 72 h): > 50%
- Inhibition of proliferation, Liver cancer BEL-7402 ([12]; 72 hours, 30 µM): 57%
- inhibition at 30 µM [13]: 34%
